Assays:
Assay type in all cases: in vivo, mouse
[1] = system: BALB/c mice, white LED light-induced loss of optic nerve cells; experiment: Outer nuclear layer thickness in light-induced macular degeneration animal model; conditions: 6.5 mg/kg/day oral for 7 days
Excerpt: When drusen accumulates in the macular area due to dry macular degeneration, the macular area is photooxidized and causes damage to surrounding tissues and optic nerve cells, thereby resulting in a decrease of visual acuity, and in severe cases, geographic atrophy occurs, a condition in which optic nerve cells are lost and retinal apoptosis is induced. In order to determine whether a Dendropanax morbifera extract has the effect of improving damage or deformation of photoreceptor cells in an animal model where optic nerve cell damage was caused by excessive irradiation of a light source including blue light and loss of optic nerve cells similar to dry macular degeneration, the changes in the thickness of outer nuclear layer (ONL) of the retina were measured. Specifically, 6-week-old male BALB/c mice (Orient Bio Inc.) were acclimatized for one week and then subjected to dark adaptation in a dark place without light for 14 hours from the evening before white LED exposure containing blue light, and then, their pupils were dilated with 1% tropicamide eye drop the next morning. […] The slide sections were stained with hematoxylin & eosin (H&E) and observed under an optical microscope, and damage or deformation of photoreceptor cells was evaluated by measuring changes in the thickness of the outer nuclear layer of retinal tissue

[2] = system: BALB/c mice, white LED light-induced loss of optic nerve cells; experiment: Electroretinogram (wave a and wave b) in light-induced macular degeneration animal model; conditions: 6.5 mg/kg/day oral
Excerpt: An electroretinogram (ERG) is a degree of electric potential of the retinal optic nerve representing an electrical signal generated by a response of the optic nerve to light, and is used as an index to determine the presence/absence of retinal damage or disease. The electroretinogram consists of wave a and wave b, in which the wave a is generated by photoreceptors, and the wave b is generated by depolarization of bipolar cells in the inner nuclear layer of the retina by light stimulation. In order to confirm whether a Dendropanax morbifera extract has the effect of improving the decrease of activity of visual cells in an animal model in which optic nerve cell damage was caused by the irradiation of an excessive light source and loss of optic nerve cells similar to dry macular degeneration was induced, the electroretinogram was measured. […] An appropriate amount of 1% methylcellulose was added to the eyeballs while maintaining body temperature under general anesthesia, and the gold wire loops recording electrode was grounded to the cornea, and the reference electrode was placed on the cheek area, and the ground electrode was grounded to the tail, and then the electroretinogram was measured using Retiport (Roland Consult, Germany). […]

[3] = system: BALB/c mice, MNU-induced loss of optic nerve cells; experiment: Outer nuclear layer thickness in N-methyl-N-nitrosourea (MNU) animal model; conditions: 6.5 and 13 mg/kg/day oral for 7 days
Experimental: In order to confirm the effect of the Dendropanax morbifera extract on improving damage or deformation of photoreceptor cells, N-methyl-N-nitrosourea (MNU) toxic to photoreceptor cells was administered, and the changes in thickness of the outer nuclear layer (ONL) of the retina were measured in an animal model where loss of optic nerve cells similar to dry macular degeneration was induced. Specifically, 6-week-old male BALB/c mice (Orient Bio Inc.) were acclimatized for one week, and N-methyl-N-nitrosourea (MNU) (Sigma, USA) was prepared to a concentration of 1% in a 0.05% acetic acid solution and was administered intraperitoneally to mice at a concentration of 1%, 60 mg/kg per individual, in which only the same amount of 0.05% acetic acid was administered intraperitoneally in the negative control. The test drug was orally administered once daily for 7 days from the same day after administration of N-methyl-N-nitrosourea. […] The slide sections were stained with hematoxylin & eosin (H&E) and observed under an optical microscope, and damage or deformation of photoreceptor cells was evaluated by measuring changes in the thickness of the outer nuclear layer of retinal tissue.

O=C(/C=C/c1ccc(O)c(O)c1)O[C@@H]1C[C@@](O)(C(=O)O)C[C@@H](O)[C@@H]1O [neochlorogenic acid, Neochlorogenic acid]
not statistically significant: increase of thickness of the outer nuclear layer (positive control) [1] | improvement of retinal nerve conduction (positive control) [2] | increase of thickness of the outer nuclear layer (positive control) [3]
